Reference: US7598207B2, “Herbicidal composition” (Sumitomo Chemical Company, Limited, priority 2006, dated 2009)

How the values were obtained:
Type in all cases: in vivo
wheat = experiment: Test Example 1: soil-surface granule pot test, phytotoxicity against crop; settings: flumioxazin 40 g/ha; granules on soil surface; 48 days after application
Source text: (§1) Plastic pots each having a diameter of 18 cm and a height of 14 cm were filled with upland soil, and then seeded with wheat and barnyardgrass. On the surface of the soil of the above-mentioned plastic pots, Flumioxazin granules (granules containing 0.25% of flumioxazin, commercial name: Broad Star, produced by Valent U.S.A.), granules containing Compound [I] (prepared by using one part of Compound [I], 0.5 part of Neocol YSK, 2 parts of Toxanon GR31A, 30 parts of Kunigel VI and 66.5 parts of calcium carbonate according to Formulation example 9), and a mixture of the Flumioxazin granules with the granules containing Compound [I] were applied with hand in a designated amount given by Table 1.
(§2) The treated plants were grown in the greenhouse. The herbicidal activity and phytotoxicity against the crop were examined 48 days after the application.

ivyleaf morningglory = experiment: Test Example 6: soil-surface granule pot test, herbicidal activity; settings: flumioxazin 25 g/ha; granules on soil surface; 14 days after application
Source text: (§3) Plastic pots each having a diameter of 21 cm and a height of 20 cm were filled with upland soil, and then planted with potato and seeded with barnyardgrass, crabgrass and ivyleaf morningglory. Next day, on the surface of the soil of the above-mentioned plastic pots, Flumioxazin granules (granules containing 0.25% of flumioxazin, commercial name: Broad Star, produced by Valent U.S.A.), granules containing 0.9% of Compound [I] (prepared according to Formulation example 9), and a mixture of the Flumioxazin granules with the granules containing Compound [I] were applied with hand in a designated amount given by Table 6.
(§4) The herbicidal activity and phytotoxicity against the vegetable were examined 14 days after the application.

barnyardgrass [1] = experiment: as above; settings: flumioxazin 25 g/ha; granules on soil surface; 14 days after application
Source text: as §3, §4

crabgrass = experiment: as above; settings: flumioxazin 25 g/ha; granules on soil surface; 14 days after application
Source text: as §3, §4

yellow nutsedge = experiment: Test Example 3: soil-surface spray pot test, herbicidal activity; set-up: key: 0: there is no or little difference in the degree of growth between treated plants and untreated plants at the time of observation; 7: show excellent herbicidal activity; 8: show excellent herbicidal activity; 9: show excellent herbicidal activity; 10: the test plants die completely or their growth is completely inhibited; settings: 21 days after application
Source text: Plastic pots each having a width of 32 cm, a depth of 22 cm and a height of 8 cm were filled with upland soil, and then planted with a tuber of yellow nutsedge. Next day, Flumioxazin WDG (water dispersible granules containing 51% of flumioxazin, commercial name: Valor SX, produced by Valent U.S.A.), emulsifiable concentrate containing Compound [I] (prepared by dissolving Compound [I] with acetone containing Tween 20 (surfactant, sorbitan monolaurate polyglycol ether)) and a mixture thereof was diluted with a designated amount of water, and applied uniformly on the surface of the soil with a small sprayer.
The treated plants were grown in the greenhouse. The herbicidal activity and phytotoxicity against the crop were examined 21 days after the application.

potato = experiment: Test Example 6: soil-surface granule pot test, phytotoxicity against vegetable; settings: flumioxazin 25 g/ha; granules on soil surface; 14 days after application
Source text: as §3, §4

barnyardgrass [2] = experiment: Test Example 1: soil-surface granule pot test, herbicidal activity; settings: flumioxazin 40 g/ha; granules on soil surface; 48 days after application
Source text: as §1, §2

## C#CCN1C(=O)COc2cc(F)c(N3C(=O)C4=C(CCCC4)C3=O)cc21 [flumioxazin, N-(7-fluoro-3,4-dihydro-3-oxo-4-prop-2-ynyl-2H-1,4-benzoxadin-6-yl)cyclohex-1-ene-1,2-dicarboxamide]
wheat
  Phytotoxicity against crop Wheat: No damage
Ivyleaf morningglory
  Herbicidal activity Ivyleaf morningglory: 1
Barnyardgrass [1]
  Herbicidal activity Barnyardgrass: 1
crabgrass
  Herbicidal activity Crabgrass: 5
Yellow nutsedge; flumioxazin 25 g/ha
  Herbicidal activity Yellow nutsedge: 0
Yellow nutsedge; flumioxazin 50 g/ha
  Herbicidal activity Yellow nutsedge: 1
potato
  Phytotoxicity against vegetable Potato: No damage
Barnyardgrass [2]
  Herbicidal activity Barnyardgrass: 4
